Where two headings read alike, the source gives them in different places.
Experiments:
male CF1 mice = experiment: 6 Hz psychomotor seizure model of partial epilepsy; format: in vivo; parameters: concentration or dose not given beside the values; settings: 6 Hz 32 mA corneal stimulus
From the text: Compounds can also be evaluated for the protection against seizures induced by a 6 Hz, 0.2 ms rectangular pulse width of 3 s duration, at a stimulus intensity of 32 mA (CC97) applied to the cornea of male CF1 mice (20-30 g) according to procedures described by Barton et al, “Pharmacological Characterization of the 6 Hz Psychomotor Seizure Model of Partial Epilepsy,” Epilepsy Res. 47(3):217-27 (2001). Seizures are characterised by the expression of one or more of the following behaviours: stun, forelimb clonus, twitching of the vibrissae and Straub-tail immediately following electrical stimulation.

mice = experiment: Mouse rotarod assay; settings: rod at 6 rpm
Description: In mice, the rotarod procedure (Dunham and Miya, J. Am. Pharmacol. Assoc. 46:208-209 (1957)) is used to disclose minimal muscular or neurological impairment (MMI). When a mouse is placed on a rod that rotates at a speed of 6 rpm, the animal can maintain its equilibrium for long periods of time. The animal is considered toxic if it falls off this rotating rod three times during a 1-min period.

[1] = molecular target: human α1H T-type channels (Homo sapiens, UniProt O95180); experiment: T-type calcium channel block, whole cell patch clamp, α1H; format: cell-based; settings: HEK cells stably expressing human α1H; mainly non-inactivated protocol; values above 10,000 nM represented as 10000
Outline: (§1)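 Read-out: current block in whole-cell patch clamp of HEK 293 cells stably expressing human α1G or α1H subunits. Compounds were perfused locally in external solution (0.1-0.01% DMSO) under resting and inactivating voltage protocols.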

[2] = molecular target: N-type calcium channel subunits (α1B, α2δ, and β3a) (Homo sapiens, UniProt Q00975); experiment: Block of Cav2.2 channel, whole cell voltage clamp, manual and PatchXpress; format: cell-based; settings: Table 5; table follows Assay Example 3 (whole cell voltage clamp / PatchXpress); assay not given
Outline: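 Percent block taken as current amplitude ratio with versus without compound, applied in rising doses; IC50 fitted where one cell received multiple doses. Protocol: 50 ms pulses to +20 mV at 0.067 Hz from […] or −90 mV holding; P/n leak subtraction, no junction-potential correction; manual and PatchXpress recordings.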

[3] = molecular target: human α1G T-type channels (Homo sapiens, UniProt O43497); experiment: T-type calcium channel block, whole cell patch clamp, α1G; format: cell-based; settings: HEK cells stably expressing human α1G; mainly non-inactivated protocol; values above 10,000 nM represented as 10000
Outline: as §1

CAv1.2 = CAv1.2 (Homo sapiens, UniProt Q13936); experiment: L-type (CAv1.2) channel blocking, FLIPR data (Table 6); format: cell-based
Human Cav 2.2 channels = Human Cav 2.2 channels (Homo sapiens, UniProt Q00975); experiment: Fluorescent assay for CaV2.2 channels using potassium depolarization (VIPR/FLIPR); format: cell-based; settings: FLIPR data
Outline: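 HEK293 cells stably expressing human Cav2.2 with α2δ and β subunits plus Kir2.3 were loaded with fluo-4 and incubated 30 min at 25 °C with compound in 4, 12, 25 or 30 mM potassium buffer. Channels were opened with 70 mM potassium (final) and calcium influx was read by fluorescence (Ex 480/Em 535 nm).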

T-type calcium channel [4] = molecular target: T-type calcium channel (Homo sapiens, UniProt O95180); experiment: T-type channel blocking, FLIPR data (Table 6); format: cell-based; settings: for CAv3.2 IC50 Ratio closed/inact.: CAv3.2, ratio closed/inact.
From the text: (§2) Another method, high-throughput spectrophotometric assay, utilizes loading of the cell lines with a fluorescent dye sensitive to intracellular calcium concentration and subsequent examination of the effects of compounds on the ability of depolarization by potassium chloride or other means to alter intracellular calcium levels.

T-type calcium channel [5] = molecular target: T-type calcium channel (Homo sapiens, UniProt O43497); experiment: T-type channel blocking, FLIPR data (Table 6); format: cell-based; settings: CAv3.1
From the text: as §2

[6] = closed state, read-out: CAv1.2 IC50 Closed
[7] = inactivated state, read-out: CAv1.2 IC50 Inact.
[8] = closed state, read-out: CAv2.2 IC50 Closed
[9] = inactivated state, read-out: CAv2.2 IC50 Inact.
[10] = CAv3.2, closed state, read-out: CAv3.2 IC50 Closed
[11] = CAv3.2, inactivated state, read-out: CAv3.2 IC50 Inact.

Sequence of Human Cav 2.2 channels (Q00975 whole entry): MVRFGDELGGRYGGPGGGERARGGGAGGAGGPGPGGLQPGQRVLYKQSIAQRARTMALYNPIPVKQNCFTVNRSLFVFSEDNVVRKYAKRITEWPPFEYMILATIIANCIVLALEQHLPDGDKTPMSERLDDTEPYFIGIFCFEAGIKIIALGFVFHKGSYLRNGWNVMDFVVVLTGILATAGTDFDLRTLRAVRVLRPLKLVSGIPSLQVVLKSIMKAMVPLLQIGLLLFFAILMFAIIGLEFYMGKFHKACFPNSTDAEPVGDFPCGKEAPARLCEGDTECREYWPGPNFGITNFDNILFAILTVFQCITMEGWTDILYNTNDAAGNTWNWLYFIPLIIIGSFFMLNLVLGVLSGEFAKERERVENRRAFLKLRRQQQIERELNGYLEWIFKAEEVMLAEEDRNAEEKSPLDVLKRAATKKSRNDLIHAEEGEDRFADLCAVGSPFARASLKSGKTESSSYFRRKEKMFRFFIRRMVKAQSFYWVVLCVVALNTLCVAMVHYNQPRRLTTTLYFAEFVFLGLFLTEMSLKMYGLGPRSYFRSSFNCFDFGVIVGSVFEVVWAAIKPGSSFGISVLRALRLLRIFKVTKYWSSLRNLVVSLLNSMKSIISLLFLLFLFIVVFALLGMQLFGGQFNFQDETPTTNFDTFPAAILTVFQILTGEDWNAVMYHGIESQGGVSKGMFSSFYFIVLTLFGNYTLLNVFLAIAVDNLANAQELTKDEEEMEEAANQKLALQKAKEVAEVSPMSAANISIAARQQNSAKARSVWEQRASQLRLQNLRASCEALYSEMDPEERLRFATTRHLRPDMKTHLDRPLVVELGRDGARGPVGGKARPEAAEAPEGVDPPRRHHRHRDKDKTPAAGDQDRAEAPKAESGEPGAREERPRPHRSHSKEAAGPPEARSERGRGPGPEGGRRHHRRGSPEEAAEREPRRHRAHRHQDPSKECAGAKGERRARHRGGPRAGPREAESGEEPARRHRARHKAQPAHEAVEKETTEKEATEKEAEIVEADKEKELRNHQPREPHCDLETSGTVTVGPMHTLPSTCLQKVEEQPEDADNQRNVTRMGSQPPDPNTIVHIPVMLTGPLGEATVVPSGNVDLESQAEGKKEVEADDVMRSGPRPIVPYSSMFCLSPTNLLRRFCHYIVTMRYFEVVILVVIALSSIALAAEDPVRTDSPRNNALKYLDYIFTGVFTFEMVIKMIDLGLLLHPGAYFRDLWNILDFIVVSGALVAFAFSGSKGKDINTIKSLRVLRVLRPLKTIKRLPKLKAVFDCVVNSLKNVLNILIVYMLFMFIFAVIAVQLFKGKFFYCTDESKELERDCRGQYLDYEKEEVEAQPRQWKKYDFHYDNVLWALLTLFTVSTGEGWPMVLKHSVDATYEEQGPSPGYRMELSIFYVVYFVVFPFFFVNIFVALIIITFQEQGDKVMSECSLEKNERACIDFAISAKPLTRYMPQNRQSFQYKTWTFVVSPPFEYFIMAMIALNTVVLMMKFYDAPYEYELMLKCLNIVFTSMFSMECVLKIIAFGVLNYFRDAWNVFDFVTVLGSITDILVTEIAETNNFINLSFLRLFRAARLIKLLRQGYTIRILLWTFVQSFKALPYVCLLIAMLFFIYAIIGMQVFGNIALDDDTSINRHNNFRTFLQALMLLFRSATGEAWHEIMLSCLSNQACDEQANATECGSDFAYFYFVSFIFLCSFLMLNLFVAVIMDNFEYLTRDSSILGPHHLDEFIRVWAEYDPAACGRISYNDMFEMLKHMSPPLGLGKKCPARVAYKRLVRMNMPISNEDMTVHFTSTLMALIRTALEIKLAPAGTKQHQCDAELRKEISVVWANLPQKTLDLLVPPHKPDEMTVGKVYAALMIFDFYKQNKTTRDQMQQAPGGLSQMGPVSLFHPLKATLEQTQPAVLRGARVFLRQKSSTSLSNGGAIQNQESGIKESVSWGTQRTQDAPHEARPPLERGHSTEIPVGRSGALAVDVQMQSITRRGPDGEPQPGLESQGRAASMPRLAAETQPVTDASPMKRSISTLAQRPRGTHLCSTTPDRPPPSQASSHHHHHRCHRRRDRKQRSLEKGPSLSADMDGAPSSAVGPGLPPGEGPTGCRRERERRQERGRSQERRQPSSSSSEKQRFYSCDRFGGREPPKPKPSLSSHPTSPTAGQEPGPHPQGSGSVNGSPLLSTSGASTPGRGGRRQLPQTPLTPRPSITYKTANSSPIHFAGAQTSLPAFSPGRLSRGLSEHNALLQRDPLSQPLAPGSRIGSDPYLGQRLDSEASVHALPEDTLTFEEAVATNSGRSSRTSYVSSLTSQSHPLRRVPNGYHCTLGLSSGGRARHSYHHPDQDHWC
Sequence of Human Cav 2.2 channels (P54289 25-1103 partner): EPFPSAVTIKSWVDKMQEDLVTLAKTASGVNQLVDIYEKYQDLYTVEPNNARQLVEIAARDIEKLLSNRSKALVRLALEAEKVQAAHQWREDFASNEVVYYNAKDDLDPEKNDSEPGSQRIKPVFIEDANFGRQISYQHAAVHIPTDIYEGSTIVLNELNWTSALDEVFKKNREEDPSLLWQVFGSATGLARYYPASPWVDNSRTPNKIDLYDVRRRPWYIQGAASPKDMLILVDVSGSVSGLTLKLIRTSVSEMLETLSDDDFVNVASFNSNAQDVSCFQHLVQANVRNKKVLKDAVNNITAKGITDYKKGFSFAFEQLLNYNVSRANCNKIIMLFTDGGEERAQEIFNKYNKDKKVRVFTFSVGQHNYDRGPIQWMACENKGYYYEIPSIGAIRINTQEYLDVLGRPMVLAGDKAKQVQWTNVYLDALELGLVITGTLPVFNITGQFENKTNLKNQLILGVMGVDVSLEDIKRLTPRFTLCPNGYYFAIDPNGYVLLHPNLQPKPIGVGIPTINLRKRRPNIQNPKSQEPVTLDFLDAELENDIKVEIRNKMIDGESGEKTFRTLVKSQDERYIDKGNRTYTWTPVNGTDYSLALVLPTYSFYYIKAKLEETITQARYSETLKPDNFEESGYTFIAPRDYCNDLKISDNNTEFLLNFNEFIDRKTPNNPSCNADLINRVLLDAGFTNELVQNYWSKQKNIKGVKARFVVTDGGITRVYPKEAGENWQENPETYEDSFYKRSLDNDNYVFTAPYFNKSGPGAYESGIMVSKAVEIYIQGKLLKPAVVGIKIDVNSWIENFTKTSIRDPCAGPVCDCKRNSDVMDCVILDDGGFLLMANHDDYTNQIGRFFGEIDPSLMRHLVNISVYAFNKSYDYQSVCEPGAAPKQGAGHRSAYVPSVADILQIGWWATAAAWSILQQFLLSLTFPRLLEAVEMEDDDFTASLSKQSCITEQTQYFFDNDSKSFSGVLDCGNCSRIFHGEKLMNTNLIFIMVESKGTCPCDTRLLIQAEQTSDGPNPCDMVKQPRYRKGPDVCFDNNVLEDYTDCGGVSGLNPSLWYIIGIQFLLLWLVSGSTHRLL
Sequence of Human Cav 2.2 channels (P54284 whole entry partner): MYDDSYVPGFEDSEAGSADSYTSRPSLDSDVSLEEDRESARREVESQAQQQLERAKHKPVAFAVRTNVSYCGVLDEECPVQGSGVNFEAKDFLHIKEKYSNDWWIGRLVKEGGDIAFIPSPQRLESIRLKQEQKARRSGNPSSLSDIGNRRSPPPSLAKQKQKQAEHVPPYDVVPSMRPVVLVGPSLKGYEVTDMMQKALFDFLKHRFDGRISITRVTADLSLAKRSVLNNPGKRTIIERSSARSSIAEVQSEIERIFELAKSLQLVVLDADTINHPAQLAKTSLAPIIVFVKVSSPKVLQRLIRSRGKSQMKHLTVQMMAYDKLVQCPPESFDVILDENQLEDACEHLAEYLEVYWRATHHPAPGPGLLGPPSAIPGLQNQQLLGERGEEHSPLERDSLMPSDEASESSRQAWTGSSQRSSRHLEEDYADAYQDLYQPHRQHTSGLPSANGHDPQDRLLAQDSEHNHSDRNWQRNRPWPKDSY
Sequence of N-type calcium channel subunits (α1B, α2δ, and β3a) (Q00975 whole entry): as the sequence (Q00975 whole entry) above
Sequence of N-type calcium channel subunits (α1B, α2δ, and β3a) (P54289 25-1103 partner): as the sequence (P54289 25-1103 partner) above
Sequence of N-type calcium channel subunits (α1B, α2δ, and β3a) (P54284 whole entry partner): as the sequence (P54284 whole entry partner) above

SMILES | Epilepsy 6 Hz (% protected) 0.25 hr (male CF1 mice) | Epilepsy 6 Hz (% protected) 0.5 hr (male CF1 mice) | Epilepsy 6 Hz (% protected) 1 hr (male CF1 mice) | Epilepsy 6 Hz (% protected) 2 hr (male CF1 mice) | Epilepsy 6 Hz (% protected) 4 hr (male CF1 mice) | EPILEPSY ROTAROD (% IMPAIRED) 0.25 hr (mice) | EPILEPSY ROTAROD (% IMPAIRED) 0.5 hr (mice) | EPILEPSY ROTAROD (% IMPAIRED) 1 hr (mice) | EPILEPSY ROTAROD (% IMPAIRED) 2 hr (mice) | EPILEPSY ROTAROD (% IMPAIRED) 4 hr (mice) | IC50 (CAv1.2; [6]) | IC50 (CAv1.2; [7]) | CAv1.2 IC50 Ratio closed/inact. (CAv1.2) | IC50 (Human Cav 2.2 channels; [8]) | IC50 (Human Cav 2.2 channels; [9]) | CAv2.2 IC50 Ratio closed/inact. (Human Cav 2.2 channels) | IC50 (T-type calcium channel [4]; [10]) | IC50 (T-type calcium channel [4]; [11]) | CAv3.2 IC50 Ratio closed/inact. (T-type calcium channel [4]) | IC50 (T-type calcium channel [5]) | also measured
CC(C)([C@H]1C[C@@H](NC(=O)c2cc(C(F)(F)F)n[nH]2)C1)S(=O)(=O)c1cccc(C(F)(F)F)c1 [Compound 543] | 0% | 0% | 0% | 0% | 0% | 0% | 0% | 0% | 0% | 0% |  |  |  |  |  |  |  |  |  |  | 
O=C(NC1CCC(F)(S(=O)(=O)c2cccc(C(F)(F)F)c2)CC1)c1nocc1C1CC1 [Compound 272, 4-cyclopropyl-N-((1S,4S)-4-fluoro-4-(3-(trifluoromethyl)phenylsulfonyl)cyclohexyl) isoxazole-3-carboxamide] | 0% | 0% | 0% | 0% | 0% | 0% | 0% | 0% | 0% | 0% |  |  |  |  |  |  |  |  |  |  | IC50 [1]: > 10 µM; IC50 [2]: 430 nM; IC50 [3]: > 10 µM
CC(C)([C@H]1C[C@@H](NC(=O)c2ccc(C(F)(F)F)cc2S(C)(=O)=O)C1)S(=O)(=O)c1cccc(C(F)(F)F)c1 [Compound 542] | 0% | 0% | 0% | 0% | 0% | 0% | 0% | 0% | 0% | 0% |  |  |  |  |  |  |  |  |  |  | 
CC(C)([C@H]1C[C@@H](NC(=O)c2cc(C(F)(F)F)ccn2)C1)S(=O)(=O)c1cccc(C(F)(F)F)c1 [Compound 551] | 25% | 0% | 0% | 0% | 0% | 0% | 0% | 0% | 0% | 0% |  |  |  |  |  |  |  |  |  |  | 
CC(C)([C@H]1C[C@@H](CNc2cc(C(F)(F)F)n[nH]2)C1)S(=O)(=O)c1cccc(C(F)(F)F)c1 [Compound 755] |  |  |  |  |  |  |  |  |  |  | 8.17 µM | 3.88 µM | 2.1 | 4480 nM | 750 nM | 6 | ≥ 10 µM | 2.49 µM | 4 | 5.25 µM | 
O=C(c1ccc(OCC(F)(F)F)nc1)N1CC(CS(=O)(=O)c2cc(F)cc(C(F)(F)F)c2)C1 [Compound 747] |  |  |  |  |  |  |  |  |  |  | ≥ 10 µM | 8.8 µM | 1.1 | 10000 nM | 5050 nM | 2 | 9.95 µM | 5.57 µM | 1.8 | ≥ 10 µM | 
CC(C)([C@H]1C[C@H](C(=O)Nc2cc(C(F)(F)F)n[nH]2)C1)S(=O)(=O)c1cccc(C(F)(F)F)c1 [Compound 762] |  |  |  |  |  |  |  |  |  |  | ≥ 10 µM | 7.23 µM | 1.4 | 6260 nM | 390 nM | 16.1 | ≥ 10 µM | 1.84 µM | 5.4 | 2.63 µM | 
CC(C)([C@H]1C[C@H](C(=O)NCc2ccc(Oc3ccccc3)cc2)C1)S(=O)(=O)c1cccc(C(F)(F)F)c1 [Compound 764] |  |  |  |  |  |  |  |  |  |  | 3.24 µM | 0.83 µM | 3.9 | 1020 nM | 110 nM | 9.3 | 2.9 µM | 0.43 µM | 6.7 | 0.78 µM | 
O=C(NC1CCC(F)(S(=O)(=O)c2cccc(C(F)(F)F)c2)CC1)[C@@H]1C[C@@H](c2ccccc2)CN1 (stereo partly drawn) [Compound 285, (2S,4S)-N-((1S,4R)-4-fluoro-4-(3-(trifluoromethyl)phenylsulfonyl)cyclohexyl)-4-phenylpyrrolidine-2-carboxamide] | 0% | 100% | 100% | 100% | 0% | 100% | 100% | 100% | 100% | 0% |  |  |  |  |  |  |  |  |  |  | 
CC(C)([C@H]1C[C@H](C(=O)Nc2ccc(C(F)(F)F)cc2Cl)C1)S(=O)(=O)c1cccc(C(F)(F)F)c1 [Compound 763] |  |  |  |  |  |  |  |  |  |  | ≥ 10 µM | 2.19 µM | 4.6 | 2040 nM | 270 nM | 7.6 | 7.02 µM | 0.96 µM | 7.3 | 6.44 µM | 
CC(C)(C[C@H]1C[C@@H](NC(=O)[C@H]2CCCC[C@@H]2N)C1)S(=O)(=O)c1cccc(C(F)(F)F)c1 [Compound 745] |  |  |  |  |  |  |  |  |  |  | 8.68 µM | ≥ 10 µM | 0.9 | 4220 nM | 1210 nM | 3.5 | ≥ 10 µM | 10 µM | 1 | ≥ 10 µM | 
